Reference: US9409908B2 (priority 2012, dated 2016)
Where a name gives a salt, the structure may show the parent alone. Read-outs that look alike come from different tables or passages of the source.

How the values were obtained:
[1] = target: purified human plasma kallikrein (Homo sapiens (Human), UniProt P03952); experiment: biochemical; assay type: biochemical
[2] = target: purified human Factor XIa (Homo sapiens (Human), UniProt P03951); experiment: biochemical; assay type: biochemical
Sequence of purified human Factor XIa (P03951 whole entry, looked up): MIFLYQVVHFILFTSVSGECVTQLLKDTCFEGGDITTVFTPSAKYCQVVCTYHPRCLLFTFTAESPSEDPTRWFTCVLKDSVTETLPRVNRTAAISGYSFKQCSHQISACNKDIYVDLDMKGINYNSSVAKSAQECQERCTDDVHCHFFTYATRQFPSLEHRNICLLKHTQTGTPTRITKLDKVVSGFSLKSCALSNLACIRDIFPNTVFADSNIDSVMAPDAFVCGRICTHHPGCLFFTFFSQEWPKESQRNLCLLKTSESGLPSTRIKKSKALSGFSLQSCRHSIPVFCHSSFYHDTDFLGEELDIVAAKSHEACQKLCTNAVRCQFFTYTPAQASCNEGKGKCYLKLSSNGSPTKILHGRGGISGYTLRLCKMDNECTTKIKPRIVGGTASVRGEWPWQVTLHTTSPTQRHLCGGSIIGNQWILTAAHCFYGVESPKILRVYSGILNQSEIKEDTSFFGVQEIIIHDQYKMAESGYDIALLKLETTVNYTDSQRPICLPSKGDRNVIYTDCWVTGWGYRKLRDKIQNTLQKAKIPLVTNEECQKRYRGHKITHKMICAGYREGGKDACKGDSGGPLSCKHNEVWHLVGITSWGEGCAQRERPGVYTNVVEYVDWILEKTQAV
Sequence of purified human Factor XIa (P03951 whole entry partner, looked up): as the sequence (P03951 whole entry, looked up) above

Sequence of purified human plasma kallikrein (P03952 whole entry, looked up): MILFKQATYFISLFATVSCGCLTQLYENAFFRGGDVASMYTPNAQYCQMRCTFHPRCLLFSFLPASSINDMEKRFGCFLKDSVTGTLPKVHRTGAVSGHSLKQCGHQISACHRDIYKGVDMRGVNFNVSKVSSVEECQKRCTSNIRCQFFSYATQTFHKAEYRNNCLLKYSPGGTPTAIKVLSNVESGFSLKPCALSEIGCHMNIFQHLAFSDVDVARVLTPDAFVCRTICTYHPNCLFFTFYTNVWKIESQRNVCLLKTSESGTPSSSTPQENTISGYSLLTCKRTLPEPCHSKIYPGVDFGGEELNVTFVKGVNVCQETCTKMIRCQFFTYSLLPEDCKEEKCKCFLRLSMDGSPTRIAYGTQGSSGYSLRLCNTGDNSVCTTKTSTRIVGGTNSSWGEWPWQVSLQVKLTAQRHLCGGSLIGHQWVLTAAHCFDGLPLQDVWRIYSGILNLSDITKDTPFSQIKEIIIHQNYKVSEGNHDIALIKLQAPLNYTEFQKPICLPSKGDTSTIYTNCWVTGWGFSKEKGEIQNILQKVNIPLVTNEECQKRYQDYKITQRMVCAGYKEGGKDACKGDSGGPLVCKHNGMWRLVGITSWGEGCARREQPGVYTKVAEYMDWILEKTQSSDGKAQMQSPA
Sequence of purified human plasma kallikrein (P03952 whole entry partner, looked up): as the sequence (P03952 whole entry, looked up) above

| Structure (SMILES) | Ki ([1]; read-out: Plasma Kallikrein Ki) | Ki ([2]; read-out: Factor XIa Ki) | other results |
| --- | --- | --- | --- |
| Cc1ccc2c(c1)-c1ccnc(c1)[C@@H](N1CCC(c3c(F)ccc(Cl)c3F)=CC1=O)CCC[C@@H](C)C(=O)N2 [Example 141, (10R,14S)-14-[4-(3-chloro-2,6-difluorophenyl)-6-oxo-1,2,3,6-tetrahydropyridin-1-yl]-4,10-dimethyl-8,16-diazatricyclo[13.3.1.0^2,7]nonadeca-1(19),2(7),3,5,15,17-hexaen-9-one] | 123 nM | 98.9 nM | – |
| Cc1cc2cc3c(cc2[nH]1)NC(=O)[C@H](C)CCC[C@H](N1CCC(c2c(F)ccc(Cl)c2F)=CC1=O)c1cc-3ccn1 [Example 85, (13R,17S)-17-[4-(3-Chloro-2,6-difluorophenyl)-6-oxo-1,2,3,6-tetrahydropyridin-1-yl]-6,13-dimethyl-7,11,19-triazatetracyclo[16.3.1.0^2,10.0^4,8]docosa-1(22),2,4(8),5,9,18,20-heptaen-12-one, TFA salt] | 47 nM | 9.17 nM | – |
| COC(=O)Nc1ccc2c(c1)NC(=O)[C@H](C)C(F)CC[C@H](N1CCC(c3c(F)ccc(Cl)c3F)=CC1=O)c1cc-2ccn1 (stereo partly drawn) [Example 180, Methyl N-[(10S,14S)-14-[4-(3-chloro-2,6-difluorophenyl)-6-oxo-1,2,3,6-tetrahydropyridin-1-yl]-11-fluoro-10-methyl-9-oxo-8,16-diazatricyclo[13.3.1.0^2,7]nonadeca-1(19),2(7),3,5,15,17-hexaen-5-yl]carbamate] | 2.42 nM | 0.18 nM | – |
| COC(=O)Nc1ccc2c(c1)C(=O)NCCCC[C@H](N1CCC(c3c(F)ccc(Cl)c3F)=CC1=O)c1cc-2ccn1 [Example 24, Methyl N-[(14S)-14-[4-(3-chloro-2,6-difluorophenyl)-6-oxo-1,2,3,6-tetrahydropyridin-1-yl]-8-oxo-9,16-diazatricyclo[13.3.1.0^2,7]nonadeca-1(19),2(7),3,5,15,17-hexaen-5-yl]carbamate, TFA salt] | 214 nM | 270 nM | – |
| C[C@@H]1CCC[C@H](N2CCC(c3c(F)ccc(Cl)c3F)=CC2=O)c2cc(ccn2)-c2c(F)cc(F)cc2NC1=O [Example 201, (10R,14S)-14-[4-(3-chloro-2,6-difluorophenyl)-6-oxo-1,2,3,6-tetrahydropyridin-1-yl]-3,5-difluoro-10-methyl-8,16-diazatricyclo[13.3.1.0^2,7]nonadeca-1(19),2(7),3,5,15,17-hexaen-9-one, TFA salt] | 105 nM | 50 nM | – |
| C[C@@H]1CCC[C@H](n2ccc(-c3c(F)ccc(Cl)c3F)cc2=O)c2cc(ccn2)-c2ccncc2NC1=O [Example 185, (10R,14S)-14-[4-(3-chloro-2,6-difluorophenyl)-2-oxo-1,2-dihydropyridin-1-yl]-10-methyl-5,8,16-triazatricyclo[13.3.1.0^2,7]nonadeca-1(19),2(7),3,5,15,17-hexaen-9-one] | – | – | Ki ([1]; Plasma Kallikrein Ki): 47.4 nM; Ki [2]: 22.8 nM |
| COC(=O)Nc1ccc2c(c1)NC(=O)[C@H](C)CCC[C@H](N1CCC(c3cccc(C)c3C)=CC1=O)c1cc-2ccn1 [Example 114, Methyl-N-[(10R,14S)-14-[4-(2,3-dimethylphenyl)-6-oxo-1,2,3,6-tetrahydropyridin-1-yl]-10-methyl-9-oxo-8,16-diazatricyclo[13.3.1.0^2,7]nonadeca-1(18),2,4,6,15(19),16-hexaen-5-yl]carbamate] | 143 nM | 108 nM | – |
| COC(=O)Nc1ccc2c(c1)NC(=O)C(C)(O)CCC[C@H](N1CCC(c3c(F)ccc(Cl)c3F)=CC1=O)c1cc-2ccn1 (single isomer, unassigned) [Example 124, TFA salt] | – | – | Ki ([1]; Plasma Kallikrein Ki): 483 nM; Ki [2]: 346 nM |
| COC(=O)Nc1ccc2c(c1)NC(=O)[C@H](C)CCC[C@H](N1CCC(C3CCCC(C)C3)=CC1=O)c1cc-2ccn1 (single isomer, unassigned) [Example 225, TFA salt] | – | – | Ki ([1]; TFA salt, read-out: Plasma Kallikrein Ki): 95.5 nM; Ki ([2]; TFA salt, read-out: Factor XIa Ki): 26.1 nM |
| C[C@@H]1CCC[C@H](N2CCC(c3c(F)ccc(Cl)c3F)=CC2=O)c2cc(ccn2)-c2ccc(CO)cc2NC1=O [Example 149, (10R,14S)-14-[4-(3-chloro-2,6-difluorophenyl)-6-oxo-1,2,3,6-tetrahydropyridin-1-yl]-5-(hydroxymethyl)-10-methyl-8,16-diazatricyclo[13.3.1.0^2,7]nonadeca-1(19),2(7),3,5,15,17-hexaen-9-one] | 22.6 nM | 17.5 nM | – |
| C[C@@H]1CCC[C@H](N2CCC(c3c(Br)ccc(Cl)c3F)=CC2=O)c2cc(ccn2)-c2ccc(C(N)=O)cc2NC1=O [Example 29, (14S)-14-[4-(6-Bromo-3-chloro-2-fluorophenyl)-6-oxo-1,2,3,6-tetrahydropyridin-1-yl]-10-methyl-9-oxo-8,16-diazatricyclo[13.3.1.0^2,7]nonadeca-1(19),2(7),3,5,15,17-hexaene-5-carboxamide, TFA salt] | 3 nM | 2.88 nM | – |
| COc1ccc2c(c1)NC(=O)[C@H](C)CCC[C@H](N1CCC(c3c(F)ccc(Cl)c3F)=CC1=O)c1cc-2ccn1 [Example 17, (10R,14S)-14-[4-(3-chloro-2,6-difluorophenyl)-6-oxo-1,2,3,6-tetrahydropyridin-1-yl]-5-methoxy-10-methyl-8,16-diazatricyclo[13.3.1.0^2,7]nonadeca-1(19),2,4,6,15,17-hexaen-9-one, TFA salt] | 114 nM | 45.3 nM | – |
| COC(=O)Nc1ccc2c(c1)NC(=O)[C@H](C)CCC[C@H](N1CCC(c3cc(Cl)ccc3C)=CC1=O)c1cc-2ccn1 [Example 110, Methyl N-[(10R,14S)-14-[4-(5-chloro-2-methylphenyl)-6-oxo-1,2,3,6-tetrahydropyridin-1-yl]-10-methyl-9-oxo-8,16-diazatricyclo[13.3.1.0^2,7]nonadeca-1(18),2,4,6,15(19),16-hexaen-5-yl]carbamate] | 3.91 nM | 0.62 nM | – |
| C[C@@H]1CCC[C@H](N2CCC(c3c(-c4ccccc4)ccc(Cl)c3F)=CC2=O)c2cc(ccn2)-c2ccccc2NC1=O [Example 57, (10R,14S)-14-[4-(3-Chloro-2-fluoro-6-phenylphenyl)-6-oxo-1,2,3,6-tetrahydropyridin-1-yl]-10-methyl-8,16-diazatricyclo[13.3.1.0^2,7]nonadeca-1(19),2,4,6,15,17-hexaen-9-one, TFA salt] | 351 nM | 35.6 nM | – |
| COC(=O)c1ccc2c(c1)-c1cccc(c1)[C@H](N1CCC(c3c(F)ccc(Cl)c3F)=CC1=O)CCC[C@@H](C)C(=O)N2 [Example 165, Methyl (10R,14R)-14-[4-(3-chloro-2,6-difluorophenyl)-6-oxo-1,2,3,6-tetrahydropyridin-1-yl]-10-methyl-9-oxo-8-azatricyclo[13.3.1.0^2,7]nonadeca-1(19),2,4,6,15,17-hexaene-4-carboxylate] | 9470 nM | > 398 nM | – |
| C[C@@H]1CCC[C@H](N2CCC(c3c(F)ccc(Cl)c3F)=CC2=O)c2cc(ccn2)-c2ccc(Nc3ccncn3)cc2NC1=O [Example 90, (10R,14S)-14-[4-(3-Chloro-2,6-difluorophenyl)-6-oxo-1,2,3,6-tetrahydropyridin-1-yl]-10-methyl-5-[(pyrimidin-4-yl)amino]-8,16-diazatricyclo[13.3.1.0^2,7]nonadeca-1(19),2(7),3,5,15,17-hexaen-9-one, 2 TFA salt] | 4 nM | 1.81 nM | – |
| C[C@@H]1CCC[C@H](N2CCC(c3c(F)ccc(Cl)c3F)=CC2=O)c2cc(ccn2)-c2ccc(NC3O[C@@H](CO)[C@H](O)[C@@H](O)[C@@H]3O)cc2NC1=O (some centres unmarked) [Example 131] | 20.8 nM | 7.22 nM | – |
| C[C@@H]1CCC[C@H](N2CCC(c3c(Br)ccc(Cl)c3F)=CC2=O)c2cccc(c2)-c2cc(C(=O)O)ccc2NC1=O [Example 167, (10R,14S)-14-[4-(6-bromo-3-chloro-2-fluorophenyl)-6-oxo-1,2,3,6-tetrahydropyridin-1-yl]-10-methyl-9-oxo-8-azatricyclo[13.3.1.0^2,7]nonadeca-1(19),2,4,6,15,17-hexaene-4-carboxylic acid] | 20.1 nM | 0.81 nM | – |
| C[C@@H]1CCC[C@H](N2CCC(c3c(F)ccc(Cl)c3F)=CC2=O)c2cc(ccn2)-c2cc(F)c(F)cc2NC1=O [Example 205, (10R,14S)-14-[4-(3-chloro-2,6-difluorophenyl)-6-oxo-1,2,3,6-tetrahydropyridin-1-yl]-4,5-difluoro-10-methyl-8,16-diazatricyclo[13.3.1.0^2,7]nonadeca-1(19),2(7),3,5,15,17-hexaen-9-one, TFA salt] | 88.4 nM | 69.2 nM | – |
| CC(C)[C@@H]1CCC[C@H](N2CCC(c3c(F)ccc(Cl)c3F)=CC2=O)c2cc(ccn2)-c2ccccc2NC1=O [Example 95, (10S,14S)-14-[4-(3-chloro-2,6-difluorophenyl)-6-oxo-1,2,3,6-tetrahydropyridin-1-yl]-10-(propan-2-yl)-8,16-diazatricyclo[13.3.1.0^2,7]nonadeca-1(18),2,4,6,15(19),16-hexaen-9-one, TFA salt] | 107 nM | 46.5 nM | – |
| COC(=O)Nc1ccc2c(c1)NC(=O)[C@H](C)CCC[C@H](N1CCC(c3cc(Cl)ccc3C(F)(F)F)=CC1=O)c1cc-2ccn1 [Example 36, Methyl N-[(10R,14S)-14-{4-[5-chloro-2-(trifluoromethyl)phenyl]-6-oxo-1,2,3,6-tetrahydropyridin-1-yl}-10-methyl-9-oxo-8,16-diazatricyclo[13.3.1.0^2,7]nonadeca-1(19),2,4,6,15,17-hexaen-5-yl]carbamate, TFA salt] | 8 nM | 0.09 nM | – |
| Cc1ncn(-c2ccc(Cl)cc2C2=CC(=O)N([C@H]3CCC[C@@H](C)C(=O)Nc4ccccc4-c4ccnc3c4)CC2)n1 [Example 74, (10R,14S)-14-{4-[5-Chloro-2-(3-methyl-1H-1,2,4-triazol-1-yl)phenyl]-6-oxo-1,2,3,6-tetrahydropyridin-1-yl}-10-methyl-8,16-diazatricyclo[13.3.1.0^2,7]nonadeca-1(19),2(7),3,5,15,17-hexaen-9-one, TFA salt] | 238 nM | 40.1 nM | – |
